Measurements as given in patent US20160333019A1, “SYNTHESIS AND FORMULATIONS OF PORPHYRIN COMPOUNDS” (Aeolus Sciences, Inc., priority 2013, published 2016).

Tests used:
[1] = Study 4: 75 mg/mL Formula (VI) in WFI at pH 7.0 under ICH storage temperatures; assay type: physicochemical; conditions: after 1 month
Method: About 10 g of WFI was placed in the container including a stir bar. […] The pH was measured and the solution was mixed at room temperature for 16-24 hours. At the end of the 16-24 hour hold/mix, the pH of solution was adjusted to pH 7.0 with either HCl or NaOH and mixed for about 15 minutes. The solution was filtered through a PVDF, 0.22 μm filter by discarding about 1 mL prior to placing about 4-5 mL into each of four separate clean containers (A, B, C, D). The pH of the samples was then measured. Solution A was stored at 2-8° C., solution B at 25° C., solution C at 30° C. and solution D at 40° C. […]

[2] = pH titration of 75 mg/mL Formula (VI) in WFI with 1.0N HCl; assay type: physicochemical; conditions: 75 mg/mL in water titrated with hydrochloric acid
Method: A solution of 75 mg/mL compound was prepared by dissolving in WFI and gently mixing for 16-24 hours prior to the titration. The titration of compound with a strong acid provided information for this compound in terms of “apparent” pKa.
In addition, this mixing would allow oxidation of trace Mn (II) compound to the higher oxidation state of Mn (III). The drug solution was titrated with 1.0 N HCl at 30 μL increments.
About 10 g of WFI was placed in the container including stir bar. […] The solution was them mixed at room temperature for 16-24 hours. At the end of the 16-24 hour hold/mix, the solution was titrated from its starting pH of about 9 down to pH 3 using 1N HCl.
Due to a big molecular structure (MW=1033), the sample preparation required an unusually long mixing process for 16-24 hours in order to complete the dissociation of drug and the oxidation of trace […] compound into a higher oxidation state of Mn (III). This mixing process was crucial to achieve the final pH equilibrium.

[5,10,15,20-tetrakis(1,3-diethylimidazolium-2-yl)porphyrinato]manganese(III) chloride hydrate complex [Formula (VI)]
chemical stability ([1]; 75 mg/mL in water pH 7, each storage condition): No significant change | pH decrease ([1]; 75 mg/mL pH 7, 25° C.): approximately 0.3 pH units | pH decrease ([1]; 75 mg/mL pH 7, 30° C.): ~0.5 pH units | pH decrease ([1]; 75 mg/mL pH 7, 40° C.): ~1.1 pH units | osmolality ([1]; 75 mg/mL pH 7, all samples): 270-276 mOsm/kg | pH change ([1]; 75 mg/mL pH 7, refrigerated sample): ≤ 0.1 pH unit | "apparent" pKa [2]: 9.02
